The values below are quoted from earlier work in PubChem BioAssay AID1259410 (Chemical Carcinogenesis Research Information System (CCRIS), 2018).

The data set concerns rodent tumor promotion studies, tumor incidence. Description: CCRIS tumor promotion studies.

In the case of `O=C(O)O`, the outcome (Carcinogen: N-BUTYL-N-(4-HYDROXYBUTYL)NITROSAMINE, 3817-11-6, Doses [Carcinogen]: 0.05% IN DRINKING WATER FOR 4 WK, Doses [Promoter]: 0, 3% IN DIET FOR 32 WK BEGINNING 3 D POST LAST CARCINOGEN DOSE (STUDY DURATION: 36 WK, 3 D), Route [Carcinogen]: ORAL, Route [Promoter]: ORAL, Species: RAT, Strain/Sex: F344/MALE) is recorded as “urinary bladder: papilloma, carcinoma”; the outcome (Carcinogen: N-BUTYL-N-(4-HYDROXYBUTYL)NITROSAMINE, 3817-11-6, Doses [Carcinogen]: 0.05% IN DRINKING WATER FOR 4 WK, Doses [Promoter]: 0, 3.36% IN DIET BEGINNING POST LAST CARCINOGEN DOSE AND CONTINUING FOR 32 WK (STUDY DURATION: 37 WK), Route [Carcinogen]: ORAL, Route [Promoter]: ORAL, Species: RAT, Strain/Sex: WISTAR/MALE) is recorded as “urinary bladder: papilloma”; the outcome (Carcinogen: N-BUTYL-N-(4-HYDROXYBUTYL)NITROSAMINE; 3817-11-6; Doses [Carcinogen]: 0.05% IN DRINKING WATER FOR 4 WK; Doses [Promoter]: 0; 4% IN DIET BEGINNING POST LAST CARCINOGEN DOSE AND CONTINUING FOR 32 WK STUDY DURATION: 37 WK), Route [Carcinogen]: ORAL, Route [Promoter]: ORAL, Species: RAT, Strain/Sex: WISTAR/MALE) is “urinary bladder: papilloma”; the outcome (Carcinogen: O-PHENYLPHENOL, 90-43-7, Doses [Carcinogen]: 1.25% IN DIET FOR 104 WK, Doses [Promoter]: 0, 0.16% IN DIET FOR 104 WK (STUDY DURATION: 104 WK), Route [Carcinogen]: ORAL, Route [Promoter]: ORAL, Species: RAT, Strain/Sex: F344/MALE) is “bladder: carcinoma”; the outcome (Carcinogen: O-PHENYLPHENOL, 90-43-7, Doses [Carcinogen]: 1.25% IN DIET FOR 104 WK, Doses [Promoter]: 0, 0.32% IN DIET FOR 104 WK (STUDY DURATION: 104 WK), Route [Carcinogen]: ORAL, Route [Promoter]: ORAL, Species: RAT, Strain/Sex: F344/MALE) is on record as “bladder: carcinoma”; the outcome (Carcinogen: O-PHENYLPHENOL, 90-43-7, Doses [Carcinogen]: 1.25% IN DIET FOR 104 WK, Doses [Promoter]: 0, 0.64% IN DIET FOR 104 WK (STUDY DURATION: 104 WK), Route [Carcinogen]: ORAL, Route [Promoter]: ORAL, Species: RAT, Strain/Sex: F344/MALE) is “bladder: carcinoma”.
Take `[O-][Br+2]([O-])O`: the outcome is “skin: negative as both a complete carcinogen and as a promoter” (Carcinogen: 7,12-Dimethylbenz[a]anthracene, 57-97-6, Doses [Carcinogen]: 20 nmole as a single topical application, Doses [Promoter]: 0, 40 mg/ml on skin for 51 wk (study duration: 51 wk), Route [Carcinogen]: Dermal, Route [Promoter]: Dermal, Species: Mouse, Strain/Sex: Sencar/Female (20/group)); “kidney: tumors” (Carcinogen: N-ETHYL-N-HYDROXYETHYLNITROSAMINE, 13147-25-6, Doses [Carcinogen]: 500 PPM IN DRINKING WATER FOR 2 WK, Doses [Promoter]: 0, 500 PPM IN DRINKING WATER BEGINNING POST CARCINOGEN TREATMENT AND CONTINUING FOR 24 WK (STUDY DURATION: 26 WK), Route [Carcinogen]: ORAL, Route [Promoter]: ORAL, Species: RAT, Strain/Sex: F344/MALE); “kidney: renal cell tumors” (Carcinogen: N-Ethyl-N-hydroxyethylnitrosamine, 13147-25-6, Doses [Carcinogen]: 0.05% in drinking water for 2 wk, Doses [Promoter]: 0, 500 ppm in drinking water beginning post carcinogen treatment and continuing for 30 wk (study duration: 32 wk), Route [Carcinogen]: Oral, Route [Promoter]: Oral, Species: Rat, Strain/Sex: F344/Female (15/group)); “kidney: renal cell tumors” (Carcinogen: N-Ethyl-N-hydroxyethylnitrosamine, 13147-25-6, Doses [Carcinogen]: 500 ppm in drinking water for 2 wk, Doses [Promoter]: 0, 15, 30, 60, 125, 250, 500 ppm in drinking water beginning post carcinogen treatment and continuing for 24 wk (study d, Doses [Promoter]: 0, 15, 30, 60, 125, 250, 500 ppm in drinking water beginning post carcinogen treatment and continuing for 24 wk (study d, Route [Carcinogen]: Oral, Route [Promoter]: Oral, Species: Rat, Strain/Sex: F344/Male (15/group)).
For `CN=C(NC#N)NCCSCc1nc[nH]c1C`, for the setting “Carcinogen: 1,2-DIMETHYLHYDRAZINE, 540-73-8, Doses [Carcinogen]: 30 MG/KG BW 1/WK FOR 5 WK, Doses [Promoter]: 0, 500 MG/L IN DRINKING WATER BEGINNING 4 D POST LAST CARCINOGEN DOSE (STUDY DURATION: 6 MO), Route [Carcinogen]: GAVAGE, Route [Promoter]: ORAL, Species: RAT, Strain/Sex: SPRAGUE-DAWLEY/MALE”, the outcome was “intestine: tumor”.
On to `C=Cc1c(C)c2[n-]c1=CC1=NC(=CC3=C(C)C(=C([O-])[O-])C(=N3)C(CC(=O)[O-])=C3N=C(C=2)C(C)C3CCC(=O)[O-])C(CC)=C1C.[Cu+2].[Na+].[Na+].[Na+]` (stereo unspecified), for which the outcome is given as “colorectal: tumor” (Carcinogen: 1,2-DIMETHYLHYDRAZINE, 540-73-8, Doses [Carcinogen]: 20 MG/KG/BW 1/WK FOR 5 WK, Doses [Promoter]: 0, 1.5 MILLIMOLAR IN DRINKING WATER BEGINNING POST CARCINOGEN TREATMENT AND CONTINUING FOR DURATION OF STUDY (STUDY DURA, Route [Carcinogen]: INTRAPERITONEAL, Route [Promoter]: ORAL, Species: RAT, Strain/Sex: F344/MALE) and “colorectal: tumor” (Carcinogen: 1,2-DIMETHYLHYDRAZINE, 540-73-8, Doses [Carcinogen]: 20 MG/KG/BW 1/WK FOR 5 WK, Doses [Promoter]: 0, 1.5 MILLIMOLAR IN DRINKING WATER THROUGHOUT THE STUDY (STUDY DURATION: 25 WK), Route [Carcinogen]: INTRAPERITONEAL, Route [Promoter]: ORAL, Species: RAT, Strain/Sex: F344/MALE).
For the molecule `COC(=O)[C@@H](N)Cc1ccc(O)cc1`, the outcome reads like this: (Carcinogen: N-METHYL-N'-NITRO-N-NITROSOGUANIDINE, 70-25-7, Doses [Carcinogen]: 25 UG/ML IN DRINKING WATER FOR 25 WK, Doses [Promoter]: 0, 512 MG/KG BW IN 0.9% SALINE 1/2 D FOR 26 WK BEGINNING 1 WK POST CARCINOGEN TREATMENT (STUDY DURATION: 52 WK), Route [Carcinogen]: ORAL, Route [Promoter]: SUBCUTANEOUS, Species: RAT, Strain/Sex: WISTAR/MALE) “stomach: adenocarcinoma”; (Carcinogen: N-METHYL-N'-NITRO-N-NITROSOGUANIDINE, 70-25-7, Doses [Carcinogen]: 50 UG/ML IN DRINKING WATER FOR 20 WK, Doses [Promoter]: 0, 2 ML/KG IN A VOLUME OF 2 ML/KG 0.9% NACL AT DOSE LEVEL OF 512 MG/KG/BW 1/2 D FOR 32 WK (STUDY DURATION: 32 WK), Route [Carcinogen]: ORAL, Route [Promoter]: SUBCUTANEOUS, Species: RAT, Strain/Sex: WISTAR/MALE) “stomach: adenocarcinoma”.
Turning to `CC(C)(Oc1ccc(C2CCCc3ccccc32)cc1)C(=O)O` (stereo unspecified), the outcome (Carcinogen: DIETHYLNITROSAMINE, 55-18-5, 2-ACETYLAMINOFLUORENE, 6292-55-3, CARBON TETRACHLORIDE, 56-23-5, Carcinogen: DIETHYLNITROSAMINE, 55-18-5, 2-ACETYLAMINOFLUORENE, 6292-55-3, CARBON TETRACHLORIDE, 56-23-5, Doses [Carcinogen]: 200 MG/KG ONCE FOLLOWED 2 WK LATER BY 0.03% 2-ACETYLAMINOFLUORENE IN DIET FOR 2 WK PLUS 2 ML/KG CARBON TETRACHLORIDE IN, Doses [Promoter]: 0.1% IN DIET STARTING 1 WK POST 2-ACETYLAMINOFLUORENE AND CONTINUED FOR 6 MO (STUDY DURATION: 7 MO), Route [Carcinogen]: INTRAPERITONEAL, ORAL, INTRAGASTRIC, Route [Carcinogen]: INTRAPERITONEAL, ORAL, INTRAGASTRIC, Route [Promoter]: ORAL, Species: RAT, Strain/Sex: WISTAR/MALE) is “liver: hepatocellular carcinoma”.
